Measured values published in patent US9428447B2, “Bis-(aryl/heteroaryl)-methylene compounds, pharmaceutical compositions containing same and their use for treating cancer” (The Royal Institution For The Advancement of …, priority 2011, dated 2016).

Columns and labels:
VDR [1] = molecular target: T1, VDR (Homo sapiens (Human), UniProt P11473); assay: VDR agonism: induction of CYP24 gene expression in SCC25 cells (RT/PCR); format: cell-based; conditions: for VDR agonism by induction of CYP24 gene expression (screen): test compounds 10 μM, FIG. 1a; for VDR agonist activity/potency (CYP24 induction, dose response): 1d; for induction of CYP24 by the compound blocked (consistent with binding to the VDR): FIG. 1c
T1 sequence (P11473 whole entry): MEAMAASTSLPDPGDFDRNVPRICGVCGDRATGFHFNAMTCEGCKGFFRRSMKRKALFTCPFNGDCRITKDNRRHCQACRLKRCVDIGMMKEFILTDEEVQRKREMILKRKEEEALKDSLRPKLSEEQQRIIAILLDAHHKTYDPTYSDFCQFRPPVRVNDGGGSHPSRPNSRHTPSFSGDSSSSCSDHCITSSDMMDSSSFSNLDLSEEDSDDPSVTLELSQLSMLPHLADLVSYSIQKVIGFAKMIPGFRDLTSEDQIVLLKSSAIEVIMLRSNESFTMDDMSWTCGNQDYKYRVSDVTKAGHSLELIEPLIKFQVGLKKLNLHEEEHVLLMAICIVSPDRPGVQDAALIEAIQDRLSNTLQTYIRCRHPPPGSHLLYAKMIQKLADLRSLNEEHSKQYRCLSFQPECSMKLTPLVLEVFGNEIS
Protocol: RNA isolation and RT/PCR analysis. PCR primers against CYP24 (forward, 5',5'-[NT], reverse, 5'-[NT] designed using Primer3 software as described and used in […]-Mendoza, Quach, T., Dabbas, B., Hudon, J., Liao, X., Palijan, A., Gleason, J. L., and White, J. H. (2008) Incorporation of histone deacetylase inhibition into the structure of a nuclear receptor agonist. Proc. Nat. Acad. Sci. […] After treatment, cells were washed with PBS, homogenized with 1 ml TRIzol Reagent (Invitrogen, Carlsbad, Calif.), kept at room temperature for 2-5 min, collected and kept at -80° C. for at least 1 h. After, thawing 0.2 ml chloroform was added. After vigorous mixing and storing for 10 min, mixtures were centrifuged (10,000 rpm, 15 min, 4° C.) and the upper transparent layer was transferred to a new tube. 0.5 ml isopropanol was added and the new solution was mixed. After centrifuging at 4° C., the supernatant was discarded and 1 ml of 75% ethanol was added. After centrifuging and discarding the supernatant, the pellet was air-dried for 5-10 min, and then dissolved in ddH2O. RNA concentrations were measured using a spectrophotometer, and 1-3 μg of RNA were loaded for reverse transcriptase reactions (total volume: 20 μl). 80 μl of ddH2O was added to the RT-product, and 1.5 μl of that was used as template for the PCR reaction. Reverse transcriptase (Super Script II) was purchased from Invitrogen (Carlsbad, Calif.). DNA polymerase and dNTP's were ordered from Fermentas (Glen Burnie, Md.).

SCC4 cells [2] = assay: MTS cell proliferation assay, SCC4; format: cell-based, human; conditions: vitamin D resistant SCC4 cells; FIGS. 7c, 8 and 9
From the text: Dose-dependent effects of compounds on cell cycle progression was monitored using a CellTiter 96 Aqueous Non-Radioactive Cell Proliferation Assay Kit (Promega). The assay composed of solutions of a novel tetrazolium compound (MTS) and an electron coupling reagent (phenazine methosulfate; PMS). MTS is reduced by metabolically active cells into a soluble formazan product that absorbs at 490 nm. The quantity of formazan product absorbing at 490 nm is directly proportional to the number of living cells.

SCC4 cells [3] = assay: LDH cytotoxicity assay, SCC4; format: cell-based, human; conditions: vitamin D resistant SCC4 cells; FIGS. 10 and 11
Protocol: The cytotoxic effects of compounds were screened using a Cytotoxicity Assay Kit (Cayman Chemical), which measures release of the soluble […] enzyme lactate dehydrogenase (LDH) from dying cells into the culture medium using a coupled two-step reaction. LDH in the media catalyzes the reduction of NAD+ to NADH and H+ by oxidation of lactate to pyruvate. LDH-catalyzed NADH production is then measured by following diaphorase catalyzed NADH-dependent reduction of a tetrazolium salt (INT) to highly-colored formazan which absorbs strongly at 490-520 nm.

VDR [4] = molecular target: T1, VDR; assay: Chromatin immunoprecipitation (ChIP) assay, CYP24 promoter, SCC25 cells; format: cell-based; conditions: FIG. 1e
Protocol: Chromatin immunoprecipitation assays. ChIP assays were performed with sonicated extracts of SCC25 cells as described (see Wang, T.-T. et al. J Immunol (2004) 173:2909-2912). […] Immunoprecipitations were performed using normal rabbit IgG, anti-VDR antibody (c-20) (Santa Cruz Biotechnology, Santa Cruz, Calif.). […].

[5] = molecular target: VDR ligand binding domain (Homo sapiens (Human), UniProt P11473); assay: Fluorescence polarization (FP) competition assay; conditions: 0.5 nM fluorescent tracer
VDR ligand binding domain, sequence (P11473 127-423): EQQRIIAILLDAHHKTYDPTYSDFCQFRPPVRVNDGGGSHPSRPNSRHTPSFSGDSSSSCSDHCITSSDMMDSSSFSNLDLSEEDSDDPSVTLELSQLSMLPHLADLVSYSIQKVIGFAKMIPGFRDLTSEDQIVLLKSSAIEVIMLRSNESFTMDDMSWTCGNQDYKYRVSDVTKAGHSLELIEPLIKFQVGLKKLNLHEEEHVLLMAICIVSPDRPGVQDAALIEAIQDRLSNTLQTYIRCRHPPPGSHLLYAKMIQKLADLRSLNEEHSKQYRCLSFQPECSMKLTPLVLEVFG
Protocol: Fluorescence polarization (FP) competition assay. The assay was performed using a vitamin D receptor competitor assay kit (Polarscreen, Invitrogen, Carlsbad, Calif.) set up using 0.5 nM fluorescent tracer. The assay measures the decrease in FP accompanying loss of binding to the relatively high molecular weight VDR ligand binding domain of the fluorescent tracer due to the presence of a competitor. FP was measured using an Analyst HT fluorimeter (Molecular Devices) configured with absorption and emissions filters as recommended by the kit manufacturers. Dose response curves and IC50 determination were determined using XLfit (IDBS) Sigmoidal Dose-Response Model [fit=(A+((B−A)/(1+((C/x)^D)))); inv=(C/((((B−A)/(y−A))−1)^(1/D))); res=(y−fit)].

[6] = system: 60 cell panel of human carcinoma cell lines; assay: National Cancer Institute 60 cell panel (overall); format: cell-based
IGROV1 = assay: NCI 60 cell panel: IGROV1; format: cell-based; conditions: Ovarian Cancer
AT84 cells = assay: EdU cell growth assay, AT84
Protocol: (§2) EdU Cell Growth Assay. Click-iT EdU Alexa Fluor high-throughput imaging (HCS) assay for cell proliferation. HCS assays were performed on AT84 mouse squamous carcinoma cell line (ATCC) following the manufacturer's instruction (Molecular Probes, Invitrogen). […] All samples were in triplicate.

SCC25 cells = assay: EdU cell growth assay, SCC25
Protocol: as §2

SCC4 cells [7] = assay: EdU cell growth assay, SCC4; conditions: 1,25D-resistant SCC4 cells; FIG. 2e, f
Protocol: as §2

[8] = system: total intracellular HDAC activity; assay: HDACi activity with fluorogenic substrate in live SCC25 cells; format: cell-based, human; conditions: increasing concentration, FIG. 2a, b
From the text: (§1) This assay measures the inhibition of total intracellular HDAC activity and determines the capacity of compounds to inhibit HDACs in the form of their naturally occurring complexes.

[9] = system: total intracellular HDAC activity; assay: HDACi activity with fluorogenic substrate in live SCC4 cells; format: cell-based, human; conditions: increasing concentration, FIG. 2a, b
From the text: as §1

CCC(CC)(c1ccc(OCCO)c(C)c1)c1ccc(OCC(=O)NO)c(C)c1 [JF-B52, N-Hydroxy-2-(4-(3-(4-(2-hydroxyethoxy)-3-methylphenyl)pentan-3-yl)-2-methylphenoxy)acetamide]
VDR agonism by induction of CYP24 gene expression (screen) (VDR [1]): completely inactive as VDR agonists

CCC(CC)(c1ccc(OCC(O)C(C)(C)C)c(C)c1)c1cc(C)c(CCC(=O)NO)s1 (stereo not drawn) [DK-178, N-hydroxy-3-(5-(3-(4-(2-hydroxy-3,3-dimethylbutoxy)-3-methylphenyl)pentan-3-yl)-3-methylthiophen-2-yl)propanamide]
antiproliferative potency (MTS) (SCC4 cells [2]): low micromolar potency

CCC(CC)(c1ccc(OCC(O)C(C)(C)C)c(C)c1)c1cn(C)c2cc(CCC(=O)NO)ccc12 (stereo not drawn) [DK-234, N-hydroxy-3-(3-(3-(4-(2-hydroxy-3,3-dimethylbutoxy)-3-methylphenyl)pentan-3-yl)-1-methyl-1H-indol-6-yl)propanamide]
antiproliferative potency (MTS) (SCC4 cells [2]): low micromolar potency

CCC(CC)(c1ccc(OCC(O)C(C)(C)C)c(C)c1)c1c[nH]c2cc(CCC(=O)NO)ccc12 (stereo not drawn) [DK-222]
antiproliferative potency (MTS) (SCC4 cells [2]): low micromolar potency | cytotoxicity (LDH release) (SCC4 cells [3]): good cytotoxicity

CCC(CC)(c1ccc(OCC(=O)NO)c(C)c1)c1ccc(OC[C@H](O)C(C)(C)C)c(C)c1 [JF-C71, N-Hydroxy-2-(4-(3-(4-((2R)-hydroxy-3,3-dimethylbutoxy)-3-methylphenyl)pentan-3-yl)-2-methylphenoxy)acetamide]
VDR agonist activity/potency (CYP24 induction, dose response) (VDR [1]; FIG. 1b): VDR agonists with similar potencies | binding of the VDR to the vitamin D response element in the proximal promoter of the CYP24 gene (ChIP) (VDR [4]): induced binding of the VDR to the vitamin D response element | IC50 [5]: ~100 nM | antiproliferative potency (MTS) (SCC4 cells [2]): low micromolar potency

CCC(CC)(c1ccc(OCC(=O)NO)c(C)c1)c1ccc(OC[C@@H](O)C(C)(C)C)c(C)c1 [JF-C72]
VDR agonist activity/potency (CYP24 induction, dose response) (VDR [1]; FIG. 1b): VDR agonists with similar potencies | binding of the VDR to the vitamin D response element in the proximal promoter of the CYP24 gene (ChIP) (VDR [4]): induced binding of the VDR to the vitamin D response element | IC50 [5]: ~35 nM | antiproliferative potency (MTS) (SCC4 cells [2]): low micromolar potency

CCC(CC)(c1ccc(OCC(=O)NO)c(C)c1)c1ccc(OCC(O)C(C)(C)C)c(C)c1 (racemic) [JF-B01, N-Hydroxy-2-(4-(3-(4-(2-hydroxy-3,3-dimethylbutoxy)-3-methylphenyl)pentan-3-yl)-2-methylphenoxy)acetamide]
VDR agonist potency relative to 1,25D (fold lower) (VDR [1]; FIG. 1b): approximately 10 fold | VDR agonist potency relative to LG190178 (VDR [1]; FIG. 1b): equal to or greater than that of LG190178 | VDR agonist activity/potency (CYP24 induction, dose response) (VDR [1]; FIG. 1b): efficacious agonist | induction of CYP24 by the compound blocked (consistent with binding to the VDR) (VDR [1]): blocked | VDR agonism by induction of CYP24 gene expression (screen) (VDR [1]): showed any agonist activity against VDR | antiproliferative potency (MTS) (SCC4 cells [2]): low micromolar potency | antiproliferative activity in the 60 cell panel ([6]; all cell lines): displayed antiproliferative activity in all cell lines | full growth inhibition concentration ([6]; melanoma cell lines, 8 out of 9 cell lines): ≤ 7 µM | TGI (IGROV1): 5.25E−6 | antiproliferative potency relative to 1,25D (fold less potent) (AT84 cells): 10 fold | antiproliferative potency relative to 1,25D (fold less potent) (SCC25 cells): 10 fold

CCC(CC)(c1ccc(OCCCC(=O)NO)c(C)c1)c1ccc(OC[C@H](O)C(C)(C)C)c(C)c1 [JFD-15]
antiproliferative potency (MTS) (SCC4 cells [2]): low micromolar potency

CCC(CC)(c1ccc(OCC(O)C(C)(C)C)c(C)c1)c1ccc(OCC(=O)NO)c(Br)c1 (stereo not drawn) [DK-309, 2-(2-bromo-4-(3-(4-(2-hydroxy-3,3-dimethylbutoxy)-3-methylphenyl)pentan-3-yl)phenoxy)-N-hydroxyacetamide]
cytotoxicity (LDH release) (SCC4 cells [3]): good cytotoxicity

CCC(CC)(c1ccc(OCC(=O)NO)cc1)c1ccc(OCC(O)C(C)(C)C)c(C)c1 (stereo not drawn) [DK-366, N-hydroxy-2-(4-(3-(4-(2-hydroxy-3,3-dimethylbutoxy)-3-methylphenyl)pentan-3-yl)phenoxy)acetamide]
antiproliferative potency (MTS) (SCC4 cells [2]): low micromolar potency | cytotoxicity (LDH release) (SCC4 cells [3]): good cytotoxicity

CCC(CC)(c1ccc(OCC(=O)O)c(C)c1)c1ccc(OCC(=O)C(C)(C)C)c(C)c1 [JF-C11]
VDR agonism by induction of CYP24 gene expression (screen) (VDR [1]): showed some agonist activity

CCC(CC)(c1ccc(OCCCCCC(=O)NO)cc1)c1ccc(OCC(O)C(C)(C)C)c(C)c1 (stereo not drawn) [DK-367]
antiproliferative potency (MTS) (SCC4 cells [2]): low micromolar potency

CCC(CC)(c1ccc(OCC(=O)NO)c(C)c1)c1ccc(OCC(=O)C(C)(C)C)c(C)c1 [JF-B59, 2-(4-(3-(4-(3,3-dimethyl-2-oxobutoxy)-3-methylphenyl)pentan-3-yl)-2-methylphenoxy)-N-hydroxyacetamide]
VDR agonist potency relative to JF-B01 (fold lower) (VDR [1]; FIG. 1b): > 10 fold

CCC(CC)(c1ccc(OCC(O)CO)c(C)c1)c1ccc(OCC(O)C(C)(C)C)c(C)c1 (stereo not drawn) [LG190178]
inhibition of proliferation (EdU incorporation) (SCC4 cells [7]): failed to block SCC4 proliferation

CCC(CC)(c1ccc(CCC(=O)NO)c(C)c1)c1ccc(OC[C@H](O)C(C)(C)C)c(C)c1 [JFD-50]
antiproliferative potency (MTS) (SCC4 cells [2]): low micromolar potency

CCC(CC)(c1ccc(OCC(=O)NO)c(C)c1)c1ccc(OCC(CO)CO)c(C)c1 [JF-B21]
VDR agonism by induction of CYP24 gene expression (screen) (VDR [1]): completely inactive as VDR agonists

CCC(O)(CC)COc1ccc(C(CC)(CC)c2ccc(OCC(=O)NO)c(C)c2)cc1C [JF-B54, 2-(4-(3-(4-(2-Ethyl-2-hydroxybutoxy)-3-methylphenyl)pentan-3-yl)-2-methylphenoxy)-N-hydroxyacetamide]
VDR agonist activity/potency (CYP24 induction, dose response) (VDR [1]; FIG. 1b): showed VDR agonist activity, but with reduced potency | induction of CYP24 by the compound blocked (consistent with binding to the VDR) (VDR [1]): blocked | inhibition of total intracellular HDAC activity (substrate deacetylation) [8]: the most potent | inhibition of total intracellular HDAC activity (substrate deacetylation) [9]: the most potent

CCC(CC)(c1ccc(OCC(=O)NO)c(C)c1)c1ccc(OCC(O)CO)c(C)c1 (stereo not drawn) [JF-B40]
VDR agonism by induction of CYP24 gene expression (screen) (VDR [1]): completely inactive as VDR agonists

CCC(CC)(c1ccc(OCC(=O)NO)c(C)c1)c1ccc(OCC(=O)NO)c(C)c1 [JF-B06]
VDR agonism by induction of CYP24 gene expression (screen) (VDR [1]): completely inactive as VDR agonists

CCC(CC)(c1ccc(OCC(=O)NO)c(C)c1)c1ccc(OCC(C)(C)O)c(C)c1 [JF-B53, N-Hydroxy-2-(4-(3-(4-(2-hydroxy-2-methylpropoxy)-3-methylphenyl)pentan-3-yl)-2-methylphenoxy)acetamide]
VDR agonist activity/potency (CYP24 induction, dose response) (VDR [1]; FIG. 1b): showed VDR agonist activity, but with reduced potency | induction of CYP24 by the compound blocked (consistent with binding to the VDR) (VDR [1]): blocked
